In patent publication US20130040882A1, “USE OF FIBROBLAST GROWTH FACTOR FRAGMENTS” (NOVARTIS AG, priority 2003, published 2013):

Tests used:
[1] = tested on: luteinising hormone and follicle-stimulating hormone genes in the pituitary gland; test: Gene expression (HGU133A) in the pituitary gland of ovariectomized monkeys treated with estradiol, tamoxifen or raloxifene; assay type: in vivo, cynomolgus monkeys (Macaca fascicularis); details: for Fold change relative to OVX: Follicle stimulating hormone / Fold change relative to OVX: Luteinising hormone / Fold expression change to SHAM control: Follicle stimulating hormone / Fold expression change to SHAM control: Luteinising hormone: pituitary gland
Experimental: Female sexually mature cynomolgus monkeys (Macaca fascicularis obtained from R. C. Hartelust B V, Tilburg, the Netherlands) approximately 48 months old were subjected to surgery (ovarectomy [OVX] or sham) 10 weeks prior to treatment and were treated for parasitic arthropods and helminthes, subjected to a tuberculin testing, and acclimated to the treatment facility for at least 14 days before beginning treatment.
Surgical Procedures. The ovariectomized cynomolgus monkey (Macaca fascicularis), which has been validated as a useful model predictive of outcomes in human clinical trials of estrogen and SERMs (Cline J M et al., Toxicol Pathol. 29:84-90 (2001)), was used as a model of estrogen deficiency. Animals were ovariectomized approximately 10 weeks before the first day of treatment. The ovaries were removed following anesthesia with a combined intramuscular injection of xylazine (Rompun®: 0.4 mL/animal, Bayer Pharma Division Sante Animale, Puteaux, France) and ketamine hydrochloride (Imalgéne®: 0.6 mL/kg, Mérial, Lyon, France). Sham-operated animals were subjected to the same surgical procedure, except for the removal of ovaries.
Ovariectomized and sham-operated animals were divided into groups of 4 and treated as outlined below.
Gene expression was determined in the pituitary and uterus at the end of drug therapy. Tissues to be analyzed (pituitary glands and uterus) were excised, snap frozen in liquid nitrogen, and stored at −80° C. until RNA extraction was performed.
Total RNA was obtained by acid guanidinium isothiocyanate-phenol-chloroform extraction (Trizol; Invitrogen Life Technologies, San Diego, Calif., USA) and purified on an affinity resin column (RNeasy; Qiagen, Hilden, Germany) according to manufacturer instructions. […] Lockhart D J, Dong H, Byrne M C, et al. Nat. Biotechnol. 1996; 14:1675-1680.
Previous studies have proven the validity of cross-species DNA chip analysis (Hacia J G et al. Nat Genet. 18:155-158 (1998)), therefore, the human gene expression probe arrays HGU133A (Affymetrix, Santa Clara, Calif., USA) containing 22,283 probe sets interrogating primarily annotated human genes were used. One GeneChip was used per tissue, per animal. The resulting image files (.dat files) were processed using the Microarray Analysis Suite 5 (MAS5) software (Affymetrix, Inc.). Tab-delimited files were obtained containing data regarding signal intensity (Signal) and categorical expression level measurement (Absolute Call).

[2] = tested on: uterine gene expression; test: Ranking of drug activity according to uterine GEP (GEP scoring axis, PCA; estrogenic potency score); assay type: in vivo, cynomolgus monkeys (Macaca fascicularis)
Description: To define a reference axis representing the desired pharmacological/toxicological action, we used a priori knowledge of 2 groups representing or approximating the extremes of the condition under study. These consisted of the OVX group (OVX untreated animals representing the one extreme) and OVX+estradiol (OVX animals treated with estradiol, an agent know to exercise a well-defined action, representing the other extreme). These two groups were used to quantitatively scale the axis. Other compounds were then positioned on this axis whereby the drugs could be ranked with regard to specific aspects of a pharmacological/toxicological action.
Generally, the data derived from an individual microarray, proteomic, or metabolite profiling experiment can be considered as a fingerprint. […] Thus, selection and elimination of the appropriate features is an important aspect of this methodology and the quantitative nature of this approach depends on the features used to define the axis of drug action.
In the case of a well-defined condition, it is possible to invoke a priori knowledge on the selection of features. If the molecular biology of the specific drug action is known, the features (e.g. genes, metabolites) to be used for the definition of the axis can be defined a priori. In the case of a less-well-defined condition, it is possible to use univariate filters (in this case, gene intensity >50, ≧1.5-fold change in expression vs. controls [OVX], and statistical significance and statistical methods to identify and exclude non-informative features.
Issues of transformation, centering (variable-wise), and scaling of the data were considered. In the case of microarrays, the data were log10-transformed and probe set-wise centered. Generally, no scaling was applied. When using only a small number of biologically identified features, these were scaled to unit variance.
To calculate the axis of drug action, a principal component axis (PCA) was performed using only the 2 treatment groups that were at the extremes (the untreated OVX animals vs. the estrodiol-treated OVX animals). Massart D L et al., Handbook for Chemometrics and Qualimetrics, Part a. (Elsevier; 1997); Jolliffe I T. Principal Component Analysis. 2nd Edition (Springer; New York, N.Y., 2002). Only 1 principal component (PC) was calculated, which was a weighted linear combination of all features in the input data pointing in the direction of maximum variance. The weights of the probe sets in this linear combination were called “loadings” and their absolute value is a measure of their importance in explaining the difference between the 2 groups. Every measurement in the experiment (e.g. microarray) could then be represented by its coordinate (score) on the PC. Alternatively, to obtain an even better separation between the groups, the PLS-DA (Partial-Least-Squares Discriminate Analysis) method with a 0/1 dummy variable as response vector was used. […] Massart D L et al., Handbook of Chemometrics and Qualimetrics, Part b. (Elsevier; 1997). The next step was identification of the features that were important for the definition of the axis. This was based on the magnitude of their loadings and their statistical significance using error estimates based on cross-validation and/or normal probability plots of the loadings. Hunter W G & Hunter J S. Statistics for Experimenters: an Introduction to Design, Data Analysis, and Model Building. 1st Edition (Wiley; 1978). This enabled calculation of a new PCA model using only the important features.
If a pharmacological or toxicological action affected multiple biochemical pathways that were represented by grossly different numbers of features in the measurement, block scaling was used. Eriksson L et al., Multi-and Megavariate Data Analysis-Principles and Applications. (Umetrics Academy; 2001). This attributed the same influence to all pathways (groups of features) in the calculation of the PCA model. […]

[3] = 123 genes thought to have a role in uterine function
[4] = 225 genes, statistically significant >1.5-fold changes
[5] = 673 genes, >1.5-fold change disregarding statistical significance

Structure (SMILES): C#C[C@]1(O)CC[C@H]2[C@@H]3CCc4cc(O)ccc4[C@H]3CC[C@@]21C [EE]
- Fold change relative to OVX: Follicle stimulating hormone [1]: <0.1 fold
- Fold change relative to OVX: Luteinising hormone [1]: 0.1 fold
- Fold expression change to SHAM control: Follicle stimulating hormone ([1]; OVX monkeys): 0.1 fold
- Fold expression change to SHAM control: Luteinising hormone ([1]; OVX monkeys): 0.5 fold

Structure (SMILES): O=C(c1ccc(OCCN2CCCCC2)cc1)c1c(-c2ccc(O)cc2)sc2cc(O)ccc12 [raloxifene]
- Fold change relative to OVX: Follicle stimulating hormone [1]: 0.8 fold
- Fold change relative to OVX: Luteinising hormone [1]: 1.3 fold
- Fold expression change to SHAM control: Follicle stimulating hormone ([1]; OVX monkeys): 5.2 fold
- Fold expression change to SHAM control: Luteinising hormone ([1]; OVX monkeys): 9.8 fold
- Estrogenic score (GEP score; OVX 0, estradiol 100) [2, 3]: 20
- Estrogenic score (GEP score; OVX 0, estradiol 100) [2, 4]: 23
- Estrogenic score (GEP score; OVX 0, estradiol 100) [2, 5]: 34
- Estrogenic scores in specific gene groups (categories) ([2]; subanalysis per gene class): −11 to 32

Structure (SMILES): CC/C(=C(\c1ccccc1)c1ccc(OCCN(C)C)cc1)c1ccccc1 [tamoxifen]
- Decrease of FSH transcripts in the pituitary gland ([1]; OVX monkeys): 2.7 fold
- Decrease of LH transcripts in the pituitary gland ([1]; OVX monkeys): 2.4 fold
- Fold change relative to OVX: Follicle stimulating hormone [1]: 0.4 fold
- Fold change relative to OVX: Luteinising hormone [1]: 0.4 fold
- Fold expression change to SHAM control: Follicle stimulating hormone ([1]; OVX monkeys): 2.3 fold
- Fold expression change to SHAM control: Luteinising hormone ([1]; OVX monkeys): 3.2 fold
- Estrogenic score (GEP score; OVX 0, estradiol 100) [2, 3]: 69
- Estrogenic score (GEP score; OVX 0, estradiol 100) [2, 4]: 59
- Estrogenic score (GEP score; OVX 0, estradiol 100) [2, 5]: 71
